Tests used:
Assay type in all cases: cell-based, Pseudomonas aeruginosa
[1] = test system: clinical strains of PA isolated from burn wounds; assay: Checkerboard assay for MIC and FIC determination; details: for MIC NaNO2 / MIC EDTA: LB pH 6.5, 10% SS hydrogel, 24 hours; for FIC NaNO2: NaNO2 in combination with EDTA
Protocol: (§1) The inventors further confirmed the bactericidal activity of AB569 gel against various clinical strains of PA isolated from burn wound patients by synergy measurements using the checkerboard analysis. […] FICI=Fractional inhibitory concentration index. […] is synergistic; 0.5<FICI<1 is weak synergistic.
(§2) 96-well polystyrene plates were filled with 100 μl of LB, pH 6.5 and 10% SS hydrogel (Smith and Nephew, London, UK). Row A was filled with 100 μl of a 4× stock of Na2-EDTA (16 mM) and […] was filled with 4× NaNO2 stock (256 mM), bringing both to a 2× concentration. Two-fold serial dilutions were performed such that a concentration gradient of each was created. Column 12 was filled with media to represent a negative control. An overnight culture of bacteria was adjusted to an OD600 of 0.5 in LB media. This was then diluted 1:1000 into fresh media, which was then added to the checkerboard plate (columns 1-11). This dilution was selected as it harbored ˜5×10^5 CFU/ml. Column 11 was the positive control. Plates were incubated at 37° C. The cell turbidity was determined using a 96 well plate reader after 24 hours inoculation. The threshold used for a positive cutoff to calculate MICs and FICs was 0.001 after blank (media) subtraction.

PAO1 = assay: Checkerboard assay for MIC and FIC determination; details: strain PAO1
Protocol: as §1, §2

bioluminescent PA Xen41 = assay: Broth based killing assay; details: for killing of PA Xen41: 2 mM Na2-EDTA and/or 30 mM NaNO2 with gel (Solosite) 1:100, LB pH 6.5, 48 hours
Protocol: The efficacy of a formulation according to the present disclosure was tested in vitro using an overnight culture of bioluminescent PA Xen41, diluted in LB media (pH 6.5) along with a gel (Solosite®, herein SS) at a 1:100 dilution. Bioluminescent PA was used for both in vitro and in vivo experiments.
(§3) Bioluminescent PA-Xen41 was grown overnight in LB media at 37° C. with shaking. Overnight cultures were diluted 100-fold into fresh LBN (LB-1% KNO3) 6.5 media and 5 ml aliquots were transferred to culture tubes. Final concentrations of 30 mM NaNO2 and/or 2 mM Na2-EDTA were added to each tube. Cells were grown anaerobically at 37° C. mimicking a mature biofilm. Samples were taken daily for 48 hours while the cells were still in the anaerobic chamber. Samples were serially diluted in PBS, pH 7.4, and 10 μl aliquot from each dilution placed on LB agar plates and grown aerobically overnight at 37° C. CFU were enumerated the next morning and converted to CFU/ml after multiplying by the dilution factor.

[2] = test system: clinical strains of PA isolated from human burn patients; assay: Broth based killing assay on clinical strains; details: gel formulation; 2 mM Na2-EDTA and/or 30 mM NaNO2; strains with varying antibiotic sensitivity and resistance
Protocol: The efficacy of the AB569 gel formulation was tested on different clinical strains of PA isolated from human burn patients with varying sensitivity and resistance to antibiotics using a broth based killing assay.
as §3

[3] = LB pH 6.5, 10% SS hydrogel, 24 hours

Compound: O=N[O-].[Na+] [NaNO2]
- MIC NaNO2 ([1]; strain Burn #1-1): 26.667 ± 9.238 mM
- FIC NaNO2 ([1]; strain Burn #1-1): 5.333 ± 2.309 mM
- MIC NaNO2 ([1]; strain Burn #1): 18.667 ± 12.220 mM
- FIC NaNO2 ([1]; strain Burn #1): 4.167 ± 3.752 mM
- MIC NaNO2 ([1]; strain Burn #2-1): 26.667 ± 9.238 mM
- FIC NaNO2 ([1]; strain Burn #2-1): 6.667 ± 2.309 mM
- MIC NaNO2 ([1]; strain Burn #2): 14.667 ± 15.144 mM
- FIC NaNO2 ([1]; strain Burn #2): 7.333 ± 7.572 mM
- MIC NaNO2 ([1]; strain Burn #3-1): 21.333 ± 9.238 mM
- FIC NaNO2 ([1]; strain Burn #3-1): 5.333 ± 2.309 mM
- MIC NaNO2 ([1]; strain Burn #3): 24 ± 13.856 mM
- FIC NaNO2 ([1]; strain Burn #3): 6.667 ± 2.309 mM
- MIC NaNO2 ([1]; strain Burn #4-1): 21.333 ± 9.238 mM
- FIC NaNO2 ([1]; strain Burn #4-1): 9.333 ± 6.110 mM
- MIC NaNO2 ([1]; strain Burn #4): 13.333 ± 4.618 mM
- FIC NaNO2 ([1]; strain Burn #4): 2.75 ± 2.165 mM
- MIC NaNO2 ([1]; strain Burn #5-1): 21.333 ± 9.238 mM
- FIC NaNO2 ([1]; strain Burn #5-1): 2.667 ± 1.155 mM
- MIC NaNO2 ([1]; strain Burn #5): 13.333 ± 4.618 mM
- FIC NaNO2 ([1]; strain Burn #5): 4.667 ± 3.055 mM
- MIC NaNO2 ([1]; strain Burn #6-1): 13.333 ± 4.618 mM
- FIC NaNO2 ([1]; strain Burn #6-1): 2.333 ± 1.523 mM
- MIC NaNO2 ([1]; strain Burn #6): 18.667 ± 12.220 mM
- FIC NaNO2 ([1]; strain Burn #6): 5.333 ± 2.309 mM
- MIC NaNO2 ([1]; strain Burn #7-1): 21.333 ± 9.238 mM
- FIC NaNO2 ([1]; strain Burn #7-1): 6 ± 3.464 mM
- MIC NaNO2 ([1]; strain Burn #7): 24 ± 13.856 mM
- FIC NaNO2 ([1]; strain Burn #7): 6.667 ± 2.309 mM
- MIC NaNO2 ([1]; strain Burn #8-1): 21.333 ± 9.238 mM
- FIC NaNO2 ([1]; strain Burn #8-1): 0.75 ± 0.433 mM
- MIC NaNO2 ([1]; strain Burn #8): 16 ± 0 mM
- FIC NaNO2 ([1]; strain Burn #8): 2.167 ± 1.756 mM
- MIC NaNO2 ([1]; strain Burn #9-1): 21.333 ± 9.238 mM
- FIC NaNO2 ([1]; strain Burn #9-1): 4.666 ± 3.055 mM
- MIC NaNO2 ([1]; strain Burn #9): 13.333 ± 4.618 mM
- FIC NaNO2 ([1]; strain Burn #9): 5.333 ± 2.309 mM
- MIC NaNO2 ([1]; strain Burn #10-1): 16 ± 0 mM
- FIC NaNO2 ([1]; strain Burn #10-1): 4 ± 0 mM
- MIC NaNO2 ([1]; strain Burn #11-1): 32 ± 27.713 mM
- FIC NaNO2 ([1]; strain Burn #11-1): 8 ± 0 mM
- MIC NaNO2 ([1]; strain Burn #12-1): 26.667 ± 9.238 mM
- FIC NaNO2 ([1]; strain Burn #12-1): 6 ± 3.464 mM
- MIC NaNO2 (PAO1; [3]): 18.667 ± 12.220 mM
- FIC NaNO2 (PAO1; NaNO2 in combination with EDTA): 4.083 ± 3.876 mM
- killing of PA Xen41 (bioluminescent PA Xen41): completely killed
- killing of PA Xen41 (bioluminescent PA Xen41; listed as A-NO2^−): complete and maintained 48 hours
- bioluminescent signals of XEN41-containing plates (IVIS) (bioluminescent PA Xen41; 48 hours after treatment): elimination of bioluminescent signals

Compound: O=C([O-])CN(CCN(CC(=O)[O-])CC(=O)O)CC(=O)O.[Na+].[Na+] [Na2-EDTA, di-sodium EDTA]
- MIC EDTA ([1]; strain Burn #1-1): 0.5 ± 0^ mM
- MIC EDTA ([1]; strain Burn #1): 0.833 ± 0.289 mM
- MIC EDTA ([1]; strain Burn #2-1): 0.833 ± 0.289 mM
- MIC EDTA ([1]; strain Burn #2): 0.5 ± 0^ mM
- MIC EDTA ([1]; strain Burn #3-1): 0.667 ± 0.289 mM
- MIC EDTA ([1]; strain Burn #3): 0.833 ± 0.289 mM
- MIC EDTA ([1]; strain Burn #4-1): 0.5 ± 0^ mM
- MIC EDTA ([1]; strain Burn #4): 0.667 ± 0.289 mM
- MIC EDTA ([1]; strain Burn #5-1): 0.5 ± 0^ mM
- MIC EDTA ([1]; strain Burn #5): 0.5 ± 0^ mM
- MIC EDTA ([1]; strain Burn #6-1): 0.5 ± 0^ mM
- MIC EDTA ([1]; strain Burn #6): 0.667 ± 0.289 mM
- MIC EDTA ([1]; strain Burn #7-1): 0.5 ± 0^ mM
- MIC EDTA ([1]; strain Burn #7): 0.833 ± 0.289 mM
- MIC EDTA ([1]; strain Burn #8-1): 0.5 ± 0^ mM
- MIC EDTA ([1]; strain Burn #8): 0.667 ± 0.289 mM
- MIC EDTA ([1]; strain Burn #9-1): 0.5 ± 0^ mM
- MIC EDTA ([1]; strain Burn #9): 0.5 ± 0^ mM
- MIC EDTA ([1]; strain Burn #10-1): 0.416 ± 0.144 mM
- MIC EDTA ([1]; strain Burn #11-1): 0.667 ± 0.289 mM
- MIC EDTA ([1]; strain Burn #12-1): 0.5 ± 0^ mM
- FIC EDTA (PAO1; EDTA in combination with NaNO2): 0.333 ± 0.144 mM
- MIC EDTA (PAO1; [3]): 0.833 ± 0.289 mM
- killing of clinical strains of PA [2]: efficient killing
- killing of PA Xen41 (bioluminescent PA Xen41): significant killing

— patent US20240156860A1, “METHOD OF TREATING INFECTED AND NONINFECTED BURN WOUNDS” (priority 2021, published 2024)
